Results on five compounds are retold here after patent US9023882B2, “5-membered nitrogen containing heterocyclic derivatives and pharmaceutical compositions comprising the same” (Kissei Pharmaceutical Co., Ltd., priority 2007, dated 2015).

Assay [1] has as its target Xanthine oxidase (from bovine milk, Sigma) (Bos taurus (Bovine), UniProt P80457). Description: Xanthine oxidase inhibitory activity. The conditions noted are these: absorbance at 290 nm. Format: biochemical. In short, it runs like this:
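Bovine milk enzyme at 0.02 units/mL in PBS was mixed with compound (DMSO stock diluted in PBS) and 200 μM xanthine stock, reacting 10 min at room temperature. Uric acid formation was read as absorbance at 290 nm; IC50 was derived with no-xanthine wells as 0% and no-compound control as 100%.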

Assay [2] concerns BBMV from human kidney cortex. Description: Inhibitory activity of uric acid transport with brush-border membrane vesicles (BBMV). It counts as biochemical. The conditions noted are these: test compound 100 μM; uptake of 14C-labeled uric acid into human kidney cortex BBMV. The protocol: Inhibitory activity of uric acid transport of test compounds was performed on the basis of methods described in a reference (Am. J. Physiol. 266 (Renal Fluid Electrolyte Physiol. 35): F797-F805, 1994) with a partial modification.
(1) Preparation of BBMV from Human Kidney Cortex
BBMV from human kidney cortex were purchased from KAC. Renal cortex was dissected from human kidney and cut into small pieces. Then, the cortex was homogenized in 5 volumes of ice-cold isotonic buffer (300 mM mannitol, 5 mM ethylene glycol-bis-(β-aminoethylether)-N,N,N′,N′-tetraacetic acid (EGTA), 12 mM tris(hydroxymethyl)aminomethane (Tris).HCl, pH 7.4). After adding 1 M magnesium chloride to a final concentration of 12 mM, and then the suspension was mixed and allowed to stand on ice for 15 minutes. The homogenized solution was centrifuged at 2,500×g for 15 minutes at 4° C., furthermore, the supernatant was centrifuged at 30,000×g for 30 minutes at 4° C. The pellet was resuspended in ice-cold buffer 1 (150 mM mannitol, 2.5 mM EGTA, 6 mM Tris.HCl, pH 7.4). After adding 1 M magnesium chloride to a final concentration of 12 mM, and then the suspension was mixed and allowed to stand on ice for 15 minutes. After centrifugation again at 2,500×g for 15 minutes at 4° C., furthermore, the supernatant was centrifuged at 30,000×g for 30 minutes at 4° C. The pellet was resuspended in ice-cold buffer 2 (100 mM mannitol, 100 mM potassium gluconate, 20 mM 2-[4-(2-hydroxyethyl)-1-piperazinyl]-ethanesulfonic acid (Hepes)-Tris, pH 7.4). After centrifugation at 30,000×g for 30 minutes at 4° C., the pellet was resuspended in buffer 2, and then the protein concentration was determined
(2) Preparation of Test Compounds […]
BBMV were thawed on ice. […] The uptake of uric acid into BBMV was measured by the rapid-filtration technique. […] Furthermore, filters were washed twice with 3 mL of stop solution and dissolved in 10 mL of Filter-Count (PerkinElmer), and the radioactivity was counted in a liquid scintillation counter (PerkinElmer). The radioactivity associated with the filters in the absence of BBMV was used as corrections. […]

A further assay concerns the target human URAT1 (Homo sapiens (Human), UniProt Q96S37). In words: Inhibitory activity of uric acid transport with human URAT1 expressing cells. Format: cell-based. The conditions noted are these: COS-7; test compound 100 μM; 14C-labeled uric acid uptake in COS7 cells transiently expressing human URAT1. The protocol: (1) Preparation of Transiently Human URAT1 Expressing Cells
Full length human URAT1 cDNA (NCBI Accession No. NM_144585) was subcloned into expression vector, pcDNA3.1 (Invitrogen). Human URAT1 expression vector was transfected into COS7 cells (RIKEN CELL BANK RCB0539) using Lipofectamine 2000 (Invitrogen). COS7 cells were cultured in collagen-coated 24 well plates (Asahi Techno Glass) at 2×10^5/well in D-MEM culture medium (Invitrogen) containing 10% fetal bovine serum (Sanko Junyaku) for 2 hours at 37° C. under the condition of 5% CO2. For 1 well, 2 μL of Lipofectamine 2000 was diluted in 50 μL of OPTI-MEM (Invitrogen) and allowed to stand at room temperature for 7 minutes (hereinafter referred to as Lipo2000-OPTI). For 1 well, 0.8 μg of human URAT1 expression vector was diluted in 50 μL of OPTI-MEM (Invitrogen) and combined gently with Lipo2000-OPTI. After standing at room temperature for 25 minutes, the mixture was added to COS7 cells at 100 μL/well. Furthermore, COS7 cells were cultured for 2 days at 37° C. under the condition of 5% CO2 and used for measuring inhibitory activity on the uptake.
(2) Preparation of Test Compounds
Test compounds were dissolved in DMSO (Wako) at 10 mM concentration and then diluted to 2 times higher concentration than intended with pre-treatment buffer (125 mM sodium gluconate, 4.8 mM potassium gluconate, 1.2 mM potassium dihydrogen phosphate, 1.2 mM magnesium sulfate, 1.3 mM calcium gluconate, 5.6 mM glucose, 25 mM Hepes, pH 7.4). Pre-treatment buffer without test compounds was used for control. […]
All tests were performed on hot-plate at 37° C. […] After mixing, the radioactivity was counted in a liquid scintillation counter (PerkinElmer). The radioactivity in COST cells not transfected with URAT1 expression vector was also counted under the same condition as control. […] Percent inhibition (%)=[1−(B−C)/(A−C)]×100 A: Radioactivity in control B: Radioactivity in the case of addition of test compounds C: Radioactivity in COST cells not transfected with URAT1 expression vector

In another assay the test system is serum uric acid. Description: Serum hypouricemic effect. It counts as in vivo. The conditions noted are these: 1 mg/kg oral, male CD (SD) IGS rats, 2 hours after administration. The protocol: (1) Method for Measurement
Test compounds at 1 mg/kg suspended in 0.5% methylcellulose solution were administered orally to overnight fasted male CD (SD) IGS rats (5-week-old, Charls River Japan). At 2 hours after administration, blood was collected under ether anesthesia from abdominal aorta, and serum was separated according to general method. Serum uric acid values were determined by use of uric acid measurement kit (Uric acid C-Test Wako: Wako), and percent decrease in uric acid was calculated according to the formula described below. Percent decrease in uric acid (%)=(Serum uric acid values in control animals−Serum uric acid values in animals administered test compounds)×100/Serum uric acid values in control animals (2) Results

Sequence of Xanthine oxidase (from bovine milk, Sigma) (P80457 whole entry): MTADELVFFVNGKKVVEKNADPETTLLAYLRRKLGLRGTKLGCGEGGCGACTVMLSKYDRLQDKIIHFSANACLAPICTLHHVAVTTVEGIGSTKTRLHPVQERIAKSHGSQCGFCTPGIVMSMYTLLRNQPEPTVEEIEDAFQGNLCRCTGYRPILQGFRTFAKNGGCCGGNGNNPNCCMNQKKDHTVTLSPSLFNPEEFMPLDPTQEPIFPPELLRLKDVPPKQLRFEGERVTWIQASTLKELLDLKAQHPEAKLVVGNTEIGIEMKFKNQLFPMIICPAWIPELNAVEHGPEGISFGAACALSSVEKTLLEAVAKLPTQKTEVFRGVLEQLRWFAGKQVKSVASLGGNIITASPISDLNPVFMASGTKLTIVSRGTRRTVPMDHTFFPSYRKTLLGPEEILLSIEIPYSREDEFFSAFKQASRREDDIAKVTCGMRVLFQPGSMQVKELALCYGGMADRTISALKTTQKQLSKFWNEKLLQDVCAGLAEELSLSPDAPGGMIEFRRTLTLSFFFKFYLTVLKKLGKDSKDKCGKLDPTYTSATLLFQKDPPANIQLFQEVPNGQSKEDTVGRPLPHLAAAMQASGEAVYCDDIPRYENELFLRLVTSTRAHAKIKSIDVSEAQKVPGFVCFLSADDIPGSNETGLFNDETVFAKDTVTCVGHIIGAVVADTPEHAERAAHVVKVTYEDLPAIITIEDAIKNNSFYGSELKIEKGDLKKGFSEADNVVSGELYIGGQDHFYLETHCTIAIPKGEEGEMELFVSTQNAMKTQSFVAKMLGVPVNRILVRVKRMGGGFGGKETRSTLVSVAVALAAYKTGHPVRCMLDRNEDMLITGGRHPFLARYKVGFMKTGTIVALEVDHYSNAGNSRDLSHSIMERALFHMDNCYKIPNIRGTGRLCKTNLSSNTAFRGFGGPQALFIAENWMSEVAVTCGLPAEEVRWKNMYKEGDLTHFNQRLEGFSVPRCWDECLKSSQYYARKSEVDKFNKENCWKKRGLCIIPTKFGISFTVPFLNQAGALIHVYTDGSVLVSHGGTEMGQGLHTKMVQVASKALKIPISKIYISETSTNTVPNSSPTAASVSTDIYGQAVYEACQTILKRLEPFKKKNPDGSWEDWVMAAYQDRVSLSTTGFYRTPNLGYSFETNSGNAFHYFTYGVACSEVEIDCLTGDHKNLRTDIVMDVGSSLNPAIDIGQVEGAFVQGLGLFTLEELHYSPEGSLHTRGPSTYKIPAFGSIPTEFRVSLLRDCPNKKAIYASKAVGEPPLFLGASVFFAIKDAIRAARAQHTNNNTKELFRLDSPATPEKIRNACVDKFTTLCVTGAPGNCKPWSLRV
Sequence of human URAT1 (Q96S37 whole entry): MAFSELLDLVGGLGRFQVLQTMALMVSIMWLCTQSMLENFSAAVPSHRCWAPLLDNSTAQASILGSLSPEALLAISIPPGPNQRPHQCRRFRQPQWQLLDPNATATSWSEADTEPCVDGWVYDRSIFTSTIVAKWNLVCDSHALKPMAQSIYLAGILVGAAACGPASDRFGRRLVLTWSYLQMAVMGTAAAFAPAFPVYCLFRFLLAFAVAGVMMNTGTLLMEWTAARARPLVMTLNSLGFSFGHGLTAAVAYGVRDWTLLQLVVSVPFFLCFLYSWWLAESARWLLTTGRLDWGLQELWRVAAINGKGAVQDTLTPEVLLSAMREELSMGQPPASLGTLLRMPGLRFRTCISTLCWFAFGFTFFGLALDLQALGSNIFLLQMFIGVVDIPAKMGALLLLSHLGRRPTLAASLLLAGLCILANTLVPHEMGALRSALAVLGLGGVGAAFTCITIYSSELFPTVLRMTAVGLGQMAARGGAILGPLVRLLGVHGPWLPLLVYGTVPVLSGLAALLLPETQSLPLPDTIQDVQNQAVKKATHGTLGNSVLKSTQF

Take `CCCCc1cn(-c2ccc(C(=O)O)c(O)c2)cc1C#N` [Example 355]: in assay [1] (100 μM xanthine final), the IC50 (commonly the concentration that inhibits the measured activity by half) was 3.3 nM. Further, the inhibition % in assay [2] is on record as >90%. Also, 100 µM produced 89% inhibition against human URAT1.

In assay [1] (0.02 units/mL, xanthine 200 μM, 10 minutes at room temperature), `N#Cc1cn(-c2cc(C(=O)O)ccn2)cc1-c1ccccc1` [Example 20, 2-(3-Cyano-4-phenylpyrrole-1-yl)isonicotinic acid] displayed an IC50 of 52.1 nM. For the same compound, the inhibition % in assay [2] was >90%. The inhibition (commonly the share of the control response that was lost under treatment) at 100 µM at human URAT1 was 77%.

The compound `N#Cc1cn(-c2ccc(C(=O)O)c(O)c2)cc1-c1cccs1` [Example 306] yielded a 50% inhibitory concentration (IC50) in assay [1] (100 μM xanthine final) of 7.8 nM. The inhibition % in assay [2] is recorded as >90%. For the same compound, at human URAT1, the inhibition at 100 µM is 91%.

In assay [1] (100 μM xanthine final), `N#Cc1cn(-c2ccc(C(=O)O)c(O)c2)cc1-c1ccsc1` [Example 314] gave an IC50 of 5.2 nM. Moreover, in the assay with serum uric acid, the “Percent decrease in uric acid (hypouricemic effect)” value is on record as “over 50%”.

`N#Cc1cn(-c2ccc(C(=O)O)c(O)c2)cc1-c1ccccc1` [Example 301] yielded an IC50 in assay [1] (100 μM xanthine final) of 6.2 nM. Further, the “Percent decrease in uric acid (hypouricemic effect)” value in the assay on serum uric acid is given as “over 50%”.
